This is an account of results in patent publication US12290521B2, “Methods and materials for identifying and treating BET inhibitor-resistant cancers” (Mayo Foundation for Medical Education and Research, priority 2018, dated 2025).

One data set relates to C4-2 xenograft tumors. Briefly: Prostate cancer xenografts in NSG mice. Type of data set: in vivo. As to conditions: SPOP-F133V C4-2 xenografts; JQ1 50 mg/kg i.p. 5 days a week, day 21. The procedure:
6-week-old NOD-SCID IL-2-receptor gamma null (NSG) mice were generated and randomly divided into different experimental groups as indicated. All mice were housed in standard conditions with a 12-hour light/dark cycle and access to food and water ad libitum. For BRD2/3/4 knockdown studies, C4-2 cells (5×10^6), infected with lentivirus expressing empty vector (EV) or HA-SPOP-F133V mutant in combination with control shRNA or BRD2/3/4-specific shRNA, were mixed with Matrigel (in 100 μL 1×PBS plus 100 μL Matrigel (BD Biosciences)) and injected s.c. into the right flank of mice. After xenografts reached the size of about 100 mm^3, vehicle (10% beta cyclodextrin) or JQ1 (Sigma-Aldrich) at 50 mg/kg body weight was administered by i.p. injection 5 days a week. For studies with tumors treated with JQ1 and AKT inhibitor GDC-0068, C4-2 cells (5×10^6) infected with lentivirus expressing empty vector (EV) or HA-SPOP-F133V mutant were mixed with Matrigel (in 100 μL 1×PBS plus 100 μL Matrigel (BD Biosciences)) and injected s.c. into the right flank of mice. […] Growth in tumor volume was measured in a blinded fashion using digital caliper, and tumor volumes were estimated using the formula (L×W2)/2, where L is length of tumor and W is width. The volumes of tumors were compared, and P values were determined by a two-tailed Student's t test. […]

A further data set relates to C4-2 cells. The data set can be described thus: Western blot and RT-qPCR of protein and mRNA expression in C4-2 cells. Type of data set: cell-based, human. The procedure:
Cell lysates or immunoprecipitates were subjected to SDS-PAGE, and proteins were transferred to nitrocellulose membranes (GE Healthcare Sciences). The membranes were blocked in Tris-buffered saline (TBS, pH 7.4) containing 5% non-fat milk and 0.1% Tween-20, washed twice in TBS containing 0.1% Tween-20, and incubated with primary antibody overnight at 4° C., followed by secondary antibody for 1 hour at room temperature. The proteins of interest were visualized using ECL chemiluminescence system (Santa Cruz Biotechnology). Densitometry analysis of protein bands was analyzed on the Gel-Pro Analyzer software.
Total RNA was isolated from transiently transfected cells using the Trizol reagent (Thermo Fisher Scientific), and cDNA was reverse-transcribed using the Superscript RT kit (TOYOBO, Japan) according to the manufacturer's instructions. PCR amplification was performed using the SYBR Green PCR master mix Kit (TOYOBO, Japan). All quantization was normalized to the level of endogenous control GAPDH. The primer sequences for the SYBR green qPCR used were as follows: BRD2-F: 5′-[…]-3′ (SEQ ID NO:10); BRD2-R: 5′-[…]-3′ (SEQ ID NO:11); BRD3-F: 5′-[…]-3′ (SEQ ID NO:12); BRD3-R: 5′-[…]-[…]-3′ (SEQ ID NO:13); BRD4-F: 5′-[…]-GAG-3′ (SEQ ID NO:14); BRD4-F: 5′-[…]-3′ (SEQ ID NO: 15); RAC1-F: 5′-[…]-3′ (SEQ ID NO:16); RAC1-R: 5′-[…]-3′ (SEQ ID NO:17); FDFT1-F: 5′-ACTAT-[…]-3′ (SEQ ID NO:18); FDFT1-R: 5′-[…]-[…]-3′ (SEQ ID NO:19); DHCR24-F: 5′-[…]-GAGC-3′ (SEQ ID NO:20); DHCR24-R: 5′-[…]-3′(SEQ ID NO:21); DHCR7-F: 5′-[…]-3′ (SEQ ID NO: 22); DHCR7-R: 5′-[…]-3′ (SEQ ID NO:23); MVD-F: 5′-[…]-3′ (SEQ ID NO:24); MVD-R: 5′-CACAC-[…]-3′ (SEQ ID NO:25); PSA-F: 5′-[…]-[…]-3′ (SEQ ID NO:26); PSA-R: 5′-[…]-3′ (SEQ ID NO:27); TMPRSS2-F: 5′-[…]-3′ (SEQ ID NO: 28); TMPRSS2-R: 5′-[…]-3′ (SEQ ID NO:29); MYC-F: 5′-[…]-3′ (SEQ ID NO:30); MYC-R: 5′-CTTGT-[…]-3′ (SEQ ID NO:31); AR-F: 5′-[…]-TCACC-3′ (SEQ ID NO:32); AR-R: 5′-[…]-3′ (SEQ ID NO: 33); GAPDH-F: 5′-[…]-3′ (SEQ ID NO:34); and GAPDH-R: 5′-[…]-3′ (SEQ ID NO:35).
Cells were harvested and lysed by IP buffer (50 mM Tris-HCl, pH 7.4, 150 mM NaCl, 1% Triton X-100, 1% sodium deoxycholate and 1% protease inhibitor cocktails) on ice for more than 15 minutes. Cell lysate was centrifuged for 15 minutes at 13,000 rpm at 4° C., and the supernatant was quantified by BCA protein quantification assay. Equal amounts of protein sample were added into 4× sample buffer and boiled for 5 minutes. The sample was subjected to SDS-PAGE analysis and transferred to nitrocellulose membrane. The membrane was blocked by 5% milk for 1 hour at room temperature and incubated with primary antibody at 4° C. overnight. The next day, the membrane was washed three times with 1×TBST and incubated with horseradish peroxidase-conjugated secondary antibodies for 1 hour at room temperature. The protein bands were visualized by SuperSignal West Pico Stable Peroxide Solution (Thermo Fisher Scientific).
Total RNA was isolated using TRIzol reagent (Thermo Fisher Scientific). The NanoDrop 2000 spectrophotometer (Thermo Fisher Scientific) was used to assess RNA yield and quality. RNA was reversely transcribed using Superscript II reverse transcriptase (Thermo Fisher Scientific) following manufacturer's instructions. Quantitative real-time PCR was performed by mixing cDNA, gene-specific primers and IQ SYRB Green Supermix and detected by iCycler QTX detection system (Bio-Rad). The 2-ΔCt method was used to quantitate fold changes by normalizing to GAPDH.

Setting [1] is: control and SPOP-F133V C4-2 cells, JQ1 1 μM, 24 hours.

Entries after “also recorded” stand apart in the source; their conditions may differ.

With `Cc1sc2c(c1C)C(c1ccc(Cl)cc1)=N[C@@H](CC(=O)OC(C)(C)C)c1nnc(C)n1-2` [JQ1], the xenograft tumor growth entry in the data set on C4-2 xenograft tumors is on record as “JQ1-resistance”. The ERG expression result with C4-2 cells (C4-2 and 22Rv1 cells (JQ1 1 μM, 24 hours) and C4-2 tumors) is “largely decreased”. Further, in the data set with C4-2 cells (C4-2 cells, JQ1), the BRD4 protein level result is “increased”; the “DUB3 mRNA and protein levels” value is on record as “opposite; also recorded: upregulation”. The “NCOR2 protein and mRNA expression” value in the data set with C4-2 cells (C4-2 cells, dose- and time-dependent) is “decreased”. The “expression of cholesterol synthesis genes (FDFT1, DHCR24, DHCR7, MVD) and BRD4 binding at their promoters” value with C4-2 cells (SPOP-F133V C4-2 cells, JQ1 1 μM, 24 hours) is “not pronounced”. In the data set on C4-2 cells (control C4-2 cells, JQ1 1 μM, 24 hours), the “expression of cholesterol synthesis genes (FDFT1, DHCR24, DHCR7, MVD) and BRD4 binding at their promoters” value is recorded as “largely inhibited”. For the same compound, in the data set on C4-2 cells (setting [1]), the AR protein level entry is on record as “largely decreased”; the AR transcriptional activity entry is “largely decreased”; the MYC protein expression entry is given as “markedly decreased”; the “expression of receptor tyrosine kinases HER3, IGF1R and INSR” value is given as “no effect”.
